Values joined by “and” are separate entries in the source; they are usually repeats but may differ in a detail not shown here. Identical values can stand only once. Toxic doses and inconclusive results are not listed.
Tested on: L1210 leukemia ip in BDF1 mice, survival T/C
Assay: NCI In Vivo Anticancer Drug Screen. Data for tumor model L1210 Leukemia (intraperitoneal) in B6D2F1 (BDF1) mice
Conditions: higher = longer survival
Summary of the method: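 Value reflects the ratio of survival in compound-treated mice to survival in vehicle-treated controls, with both groups carrying the same transplanted tumor.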

[1] = endpoint: mean survival time, dose: 100.0 mg/kg/injection, schedule: Q01DX009 (ip), vehicle: Klucel (hydroxypropylcellulose) (HPC)
[2] = endpoint: mean survival time, dose: 200.0 mg/kg/injection, schedule: Q01DX009 (ip), vehicle: Klucel (hydroxypropylcellulose) (HPC)
[3] = endpoint: mean survival time, dose: 400.0 mg/kg/injection, schedule: Q01DX009 (ip), vehicle: Klucel (hydroxypropylcellulose) (HPC)
[4] = endpoint: mean survival time, dose: 100.0 mg/kg/injection, schedule: Q01DX001 (ip), vehicle: saline
[5] = endpoint: mean survival time, dose: 200.0 mg/kg/injection, schedule: Q01DX001 (ip), vehicle: saline
[6] = endpoint: mean survival time, dose: 400.0 mg/kg/injection, schedule: Q01DX001 (ip), vehicle: saline
[7] = endpoint: mean survival time, dose: 100.0 mg/kg/injection, schedule: Q04DX003 (ip), vehicle: Klucel (hydroxypropylcellulose) (HPC)
[8] = endpoint: mean survival time, dose: 200.0 mg/kg/injection, schedule: Q04DX003 (ip), vehicle: Klucel (hydroxypropylcellulose) (HPC)
[9] = endpoint: mean survival time, dose: 400.0 mg/kg/injection, schedule: Q04DX003 (ip), vehicle: Klucel (hydroxypropylcellulose) (HPC)
[10] = endpoint: mean survival time, dose: 50.0 mg/kg/injection, schedule: Q01DX009 (ip), vehicle: Klucel (hydroxypropylcellulose) (HPC)

`O=C(Nc1ccc(Br)cc1)Nc1ccccc1F` was tested, and the T/C [1] was 98 % of control, the T/C [2] was 93 % of control and the T/C [3] was 98 % of control.

For `O=C(Nc1ccc(S(=O)(=O)F)cc1)c1cccc([N+](=O)[O-])c1`, the T/C [4] was 101 % of control, the T/C [5] was 100 % of control and the T/C [6] was 97 % of control.

`CC(=O)C(=Cc1c[nH]c2ccccc12)C(C)=O` was tested, and the T/C (endpoint: mean survival time, dose: 50.0 mg/kg/injection, schedule: Q01DX009 (ip), vehicle: water) was 98 % of control, the T/C (endpoint: mean survival time, dose: 100.0 mg/kg/injection, schedule: Q01DX009 (ip), vehicle: water) was 112 % of control and the T/C (endpoint: mean survival time, dose: 100.0 mg/kg/injection, schedule: Q04DX003 (ip), vehicle: water) was 106 % of control. For the same molecule, the T/C (endpoint: mean survival time, dose: 200.0 mg/kg/injection, schedule: Q01DX009 (ip), vehicle: water) was 98 % of control, the T/C (endpoint: mean survival time, dose: 200.0 mg/kg/injection, schedule: Q04DX003 (ip), vehicle: water) was 103 % of control and the T/C (endpoint: mean survival time, dose: 400.0 mg/kg/injection, schedule: Q01DX009 (ip), vehicle: water) was 95 % of control. The T/C (endpoint: mean survival time, dose: 400.0 mg/kg/injection, schedule: Q04DX003 (ip), vehicle: water) was 104 % of control.

With `O=C(O)CN(Cc1ccccc1)Sc1ccccc1[N+](=O)[O-]` the T/C (endpoint: mean survival time, dose: 50.0 mg/kg/injection, schedule: Q01DX009 (ip), vehicle: other) was 98 % of control, the T/C (endpoint: mean survival time, dose: 100.0 mg/kg/injection, schedule: Q01DX009 (ip), vehicle: other) was 91 % of control and the T/C (endpoint: mean survival time, dose: 100.0 mg/kg/injection, schedule: Q04DX003 (ip), vehicle: other) was 98 % of control. For the same molecule, the T/C (endpoint: mean survival time, dose: 200.0 mg/kg/injection, schedule: Q04DX003 (ip), vehicle: other) was 96 % of control.

With `[I][Hg][CH2]C1COC([CH2][Hg][I])CO1` (stereo unspecified) the T/C (endpoint: mean survival time, dose: 6.25 mg/kg/injection, schedule: Q01DX010 (ip), vehicle: saline) was 98 % of control, the T/C (endpoint: mean survival time, dose: 12.5 mg/kg/injection, schedule: Q01DX009 (ip), vehicle: saline) was 97 % of control and 100 % of control and the T/C (endpoint: mean survival time, dose: 12.5 mg/kg/injection, schedule: Q01DX010 (ip), vehicle: saline) was 106 % of control. The T/C (endpoint: mean survival time, dose: 25.0 mg/kg/injection, schedule: Q01DX009 (ip), vehicle: saline) was 96 % of control and 101 % of control, the T/C (endpoint: mean survival time, dose: 25.0 mg/kg/injection, schedule: Q01DX010 (ip), vehicle: saline) was 110 % of control and the T/C (endpoint: mean survival time, dose: 50.0 mg/kg/injection, schedule: Q01DX009 (ip), vehicle: saline) was 93 % of control and 92 % of control. For the same molecule, the T/C (endpoint: mean survival time, dose: 50.0 mg/kg/injection, schedule: Q01DX010 (ip), vehicle: saline) was 97 % of control, the T/C (endpoint: mean survival time, dose: 100.0 mg/kg/injection, schedule: Q01DX009 (ip), vehicle: saline) was 93 % of control and 97 % of control and the T/C (endpoint: median survival time, dose: 12.5 mg/kg/injection, schedule: Q01DX009 (ip), vehicle: saline) was 93 % of control. For the same molecule, the T/C (endpoint: median survival time, dose: 25.0 mg/kg/injection, schedule: Q01DX009 (ip), vehicle: saline) was 93 % of control and the T/C (endpoint: median survival time, dose: 50.0 mg/kg/injection, schedule: Q01DX009 (ip), vehicle: saline) was 93 % of control.

In the case of `Cc1ccc(C(CS(=O)(=O)c2ccc(C)cc2)c2ccccc2)cc1` (stereo unspecified), the T/C [4] is reported as 92 % of control, the T/C [5] is reported as 103 % of control and the T/C [6] is reported as 94 % of control.

`Cc1ccc(C(=O)c2ccccc2)cc1` was tested, and the T/C [7] was 97 % of control, the T/C [8] was 104 % of control and the T/C [9] was 92 % of control.

`CC(=O)c1cccc2ccccc12` was tested, and the T/C (endpoint: mean survival time, dose: 25.0 mg/kg/injection, schedule: Q04DX002 (ip), vehicle: Klucel (hydroxypropylcellulose) (HPC)) was 103 % of control, the T/C (endpoint: mean survival time, dose: 50.0 mg/kg/injection, schedule: Q04DX002 (ip), vehicle: Klucel (hydroxypropylcellulose) (HPC)) was 100 % of control and the T/C (endpoint: mean survival time, dose: 100.0 mg/kg/injection, schedule: Q04DX002 (ip), vehicle: Klucel (hydroxypropylcellulose) (HPC)) was 103 % of control.

`CN=C(NC)c1ccc(NC(=O)CCc2ccc(C(=O)Nc3ccc(C(=NC)NC)cc3)cc2)cc1` was tested, and the T/C (endpoint: mean survival time, dose: 0.75 mg/kg/injection, schedule: Q01DX Z (ip), vehicle: carboxymethylcellulose (CMC)) was 94 % of control, the T/C (endpoint: mean survival time, dose: 1.5 mg/kg/injection, schedule: Q01DX Z (ip), vehicle: carboxymethylcellulose (CMC)) was 90 % of control and the T/C (endpoint: mean survival time, dose: 3.0 mg/kg/injection, schedule: Q01DX Z (ip), vehicle: carboxymethylcellulose (CMC)) was 93 % of control. The T/C (endpoint: mean survival time, dose: 6.0 mg/kg/injection, schedule: Q01DX Z (ip), vehicle: carboxymethylcellulose (CMC)) was 113 % of control, the T/C (endpoint: mean survival time, dose: 10.5 mg/kg/injection, schedule: Q01DX Z (ip), vehicle: carboxymethylcellulose (CMC)) was 168 % of control and the T/C (endpoint: mean survival time, dose: 50.0 mg/kg/injection, schedule: Q01DX Z (oral), vehicle: carboxymethylcellulose (CMC)) was 101 % of control. For the same molecule, the T/C (endpoint: mean survival time, dose: 100.0 mg/kg/injection, schedule: Q01DX Z (oral), vehicle: carboxymethylcellulose (CMC)) was 105 % of control, the T/C (endpoint: mean survival time, dose: 200.0 mg/kg/injection, schedule: Q01DX Z (oral), vehicle: carboxymethylcellulose (CMC)) was 103 % of control and the T/C (endpoint: mean survival time, dose: 400.0 mg/kg/injection, schedule: Q01DX Z (oral), vehicle: carboxymethylcellulose (CMC)) was 94 % of control.

`CC(C)=CCN1CCN=C(c2ccccc2)c2cc(Cl)ccc21` was tested, and the T/C [10] was 100 % of control, the T/C [1] was 105 % of control and the T/C [7] was 102 % of control. For the same molecule, the T/C [2] was 94 % of control, the T/C [8] was 98 % of control and the T/C [9] was 93 % of control.

With `CCOC(=O)c1cnc2c(ccc3ncccc32)c1NCCCN(CC)CC` the T/C [10] was 112 % of control.

With `Cc1ccc(C(=O)c2cccc([N+](=O)[O-])c2)cc1` the T/C [1] was 104 % of control, the T/C [2] was 103 % of control and the T/C [3] was 98 % of control.

Source: PubChem BioAssay AID248 (DTP/NCI, 2004)
